IC50, AC50 and EC50 data for two molecules are collected here from ChEMBL document CHEMBL1201862, “PubChem BioAssay data set” (2004).

Experiment [1] deals with T1, Bcl-2-like protein 10 (Homo sapiens, UniProt Q9HD36).
T1 sequence (Q9HD36 whole entry): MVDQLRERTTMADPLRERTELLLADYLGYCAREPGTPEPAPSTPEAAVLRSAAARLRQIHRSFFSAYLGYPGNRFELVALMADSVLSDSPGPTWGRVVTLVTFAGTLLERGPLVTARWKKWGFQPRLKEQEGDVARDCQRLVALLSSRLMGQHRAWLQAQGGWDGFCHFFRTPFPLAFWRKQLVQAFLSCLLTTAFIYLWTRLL
In words: displacers of TR3 peptide from Bcl-B, primary screen, selectivity assay for Bfl-1 inhibitor project, biochemical, fluorescence polarization, FITC-TR3 peptide (AID 748).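 Also: fluorescence polarization from a fluorescein-labelled TR3 peptide binding purified Bcl-B.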

The target in experiment [2] is T2, Replicative DNA helicase DnaB (Mycobacterium tuberculosis, UniProt P9WMR3).
T2 sequence (P9WMR3 whole entry): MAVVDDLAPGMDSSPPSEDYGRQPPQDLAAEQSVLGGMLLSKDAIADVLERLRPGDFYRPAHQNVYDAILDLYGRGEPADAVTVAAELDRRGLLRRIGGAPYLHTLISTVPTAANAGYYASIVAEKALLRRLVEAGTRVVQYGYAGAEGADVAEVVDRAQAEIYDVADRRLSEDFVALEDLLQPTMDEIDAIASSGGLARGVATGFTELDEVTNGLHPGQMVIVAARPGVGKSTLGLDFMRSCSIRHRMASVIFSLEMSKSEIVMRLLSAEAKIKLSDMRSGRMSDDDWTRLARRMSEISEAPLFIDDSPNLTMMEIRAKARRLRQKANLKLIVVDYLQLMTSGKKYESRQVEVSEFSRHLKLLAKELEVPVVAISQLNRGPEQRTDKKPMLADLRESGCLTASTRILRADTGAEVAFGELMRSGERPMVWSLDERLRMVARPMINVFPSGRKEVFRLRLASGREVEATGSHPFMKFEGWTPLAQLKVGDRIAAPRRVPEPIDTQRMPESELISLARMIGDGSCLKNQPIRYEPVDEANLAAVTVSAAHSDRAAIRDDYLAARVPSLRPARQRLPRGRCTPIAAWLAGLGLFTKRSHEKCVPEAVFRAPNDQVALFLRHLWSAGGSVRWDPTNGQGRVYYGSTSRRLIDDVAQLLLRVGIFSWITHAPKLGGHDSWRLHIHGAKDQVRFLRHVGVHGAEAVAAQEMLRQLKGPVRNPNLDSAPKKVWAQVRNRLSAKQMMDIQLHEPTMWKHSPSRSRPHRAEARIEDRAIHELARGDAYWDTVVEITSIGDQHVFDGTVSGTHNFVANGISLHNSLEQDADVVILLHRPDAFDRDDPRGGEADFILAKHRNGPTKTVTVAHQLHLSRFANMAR
Kind of experiment: DnaB intein splicing inhibitors, dose response, biochemical, cell-free fluorescence (AID 449749). It counts as functional.

In experiment [3] the target is T3, Protein RecA (Mycobacterium tuberculosis, UniProt P9WHJ3).
T3 sequence (P9WHJ3 whole entry): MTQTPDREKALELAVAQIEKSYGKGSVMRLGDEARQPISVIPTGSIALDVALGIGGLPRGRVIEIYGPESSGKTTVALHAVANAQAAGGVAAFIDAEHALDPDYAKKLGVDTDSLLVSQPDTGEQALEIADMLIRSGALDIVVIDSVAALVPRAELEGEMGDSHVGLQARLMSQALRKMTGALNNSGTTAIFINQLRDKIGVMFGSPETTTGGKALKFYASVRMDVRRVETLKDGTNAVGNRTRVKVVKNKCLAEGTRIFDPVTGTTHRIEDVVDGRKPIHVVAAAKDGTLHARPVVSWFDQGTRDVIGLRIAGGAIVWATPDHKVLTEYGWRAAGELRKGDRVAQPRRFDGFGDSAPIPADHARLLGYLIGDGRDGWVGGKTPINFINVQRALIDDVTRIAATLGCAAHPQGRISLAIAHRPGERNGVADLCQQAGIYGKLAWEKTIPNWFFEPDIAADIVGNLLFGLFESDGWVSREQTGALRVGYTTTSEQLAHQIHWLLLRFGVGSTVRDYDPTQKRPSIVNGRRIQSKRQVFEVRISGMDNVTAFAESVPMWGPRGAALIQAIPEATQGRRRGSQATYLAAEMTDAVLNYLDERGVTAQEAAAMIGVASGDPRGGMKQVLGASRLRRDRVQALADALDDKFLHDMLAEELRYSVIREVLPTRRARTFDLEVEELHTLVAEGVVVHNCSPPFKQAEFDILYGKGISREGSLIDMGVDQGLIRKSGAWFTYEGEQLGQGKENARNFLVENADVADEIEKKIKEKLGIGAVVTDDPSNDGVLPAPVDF
In words: Fluorescence Cell-Free Homogeneous Dose Retest to Identify Inhibitors of RecA-Intein Splicing Activity. [Related pubchem assays (depositor defined):AID2097, AID2223, AID489010, AID492950]. It counts as functional.

The target in experiment [4] is T4, Caspase-3 (Homo sapiens, UniProt P42574).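 Also: Dose-response selectivity test against caspase-3 for candidate inhibitors of sentrin-specific proteases (SENPs).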
T4 sequence (P42574 whole entry): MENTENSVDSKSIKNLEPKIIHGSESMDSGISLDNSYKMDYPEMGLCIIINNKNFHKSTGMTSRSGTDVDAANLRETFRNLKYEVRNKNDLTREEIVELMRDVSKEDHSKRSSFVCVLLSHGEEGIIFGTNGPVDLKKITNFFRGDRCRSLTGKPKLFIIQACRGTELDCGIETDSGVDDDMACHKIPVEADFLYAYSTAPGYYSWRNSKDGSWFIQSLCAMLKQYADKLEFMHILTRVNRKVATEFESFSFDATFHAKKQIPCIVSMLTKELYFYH
It is filed as functional.

For experiment [5], the target named is T5, Sentrin-specific protease 8 (Homo sapiens, UniProt Q96LD8).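 Also: luminescence read-out of SENP8 inhibition, dose-response confirmation following an ultra-high-throughput screen.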
T5 sequence (Q96LD8 whole entry): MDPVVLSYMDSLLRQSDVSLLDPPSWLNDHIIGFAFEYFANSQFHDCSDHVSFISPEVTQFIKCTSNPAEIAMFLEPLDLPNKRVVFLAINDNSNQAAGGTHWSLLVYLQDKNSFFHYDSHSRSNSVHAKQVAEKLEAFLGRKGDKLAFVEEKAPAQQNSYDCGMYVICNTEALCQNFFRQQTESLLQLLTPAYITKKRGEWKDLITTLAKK
It counts as functional.

Experiment [6] can be described thus: cytotoxicity in HEK-293T cells, dose response, cytotoxicity control for BCR NF-kB inhibitor project, luminescence, B-cell screen hits (AID 489021).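 Also: HEK-293T cells carrying an NF-kB luciferase reporter; cells exposed to compound for about 14 hours before viability readout.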 It is filed as functional, cell-based.

Calls of active or inactive are those of the source.

As for `CC1CC(C)CN(C(=O)c2ccc3c(c2NCCO)C(=O)c2ccccc2C3=O)C1` (stereo not drawn), the IC50 in experiment [1] is 29.1 µM (active). Besides, in experiment [2], the AC50 is 14.5 µM (active). In addition, the EC50 in experiment [3] is 20 µM (active).
As for `CCC(=O)N(C1=C(NC)C(=O)c2ccccc2C1=O)C(C)C`, the results for the IC50 in experiment [4], in experiment [5] and in experiment [6] were 6.86 µM (active), 25 µM (active) and > 80 µM (inactive), respectively. For the same molecule, in experiment [2], the AC50 was 24.5 µM (active). The EC50 in experiment [3] is 9.21 µM (active).
